Source: patent publication US20240390902A1, “METHODS AND SYSTEMS FOR SORTING BIOLOGICAL PARTICLES” (Newomics Inc., priority 2017, published 2024)
Where “and” joins values, the source holds several entries; their conditions need not be identical. Identical values can stand only once. Like-named read-outs stand apart in the source and are kept apart here.

How the values were obtained:
[1] = tested on: human mesenchymal stem cells (hMSCs); conditions: 300 μM H2O2, 3 hours (FIG. 19B)
Experimental: Cell culture and staining. Human mesenchymal stem cells (MSCs) were derived from a person and purchased from Lonza (Lonza, 0000471980). […] Cells were cultured in a humidified incubator (Symphony 5.3A CO2 incubator, VWR, USA) at 37° C. with 5% CO2. MSCs basal medium (PT-3238, Lonza) with MSCGM™ SingleQuots supplement kit (PT-4105, Lonza) was used for hMSC culture, and MesenCult™ Expansion kit (5513, [sequence] Technologies, Canada) was used for mMSC culture. Both media were supplemented with 1% penicillin-streptomycin (15140122, ThermoFisher Scientific, USA) to prevent cell contamination during culture. Basal MSCs were stained with either Hoechst (Hoechst 33342, H3570, ThermoFisher Scientific, USA) for 10 minutes or cell tracker (C2102, CellTracker™ green BODIPY™ dye, ThermoFisher Scientific, USA) for 15 minutes. In all cases, adhesive cells were detached using Trypsin/EDTA (CC3232, Lonza) at 37° C. for 10 minutes. The size of trypsinized cells was measured by the analytical tool provided in the Olympus cellSens Dimension software.

[2] = tested on: mouse mesenchymal stem cells (mMSCs)
Experimental: Mouse mesenchymal stem cells (MSCs) were purchased from Cyagen (Strain C57BL/6 Mouse Mesenchymal Stem Cells, MUBMX-01001, Cyagen, USA). Cells were cultured in a humidified incubator (Symphony 5.3A CO2 incubator, VWR, USA) at 37° C. with 5% CO2. MSCs basal medium (PT-3238, Lonza) with MSCGM™ SingleQuots supplement kit (PT-4105, Lonza) was used for hMSC culture, and MesenCult™ Expansion kit (5513, [sequence] Technologies, Canada) was used for mMSC culture. Both media were supplemented with 1% penicillin-streptomycin (15140122, ThermoFisher Scientific, USA) to prevent cell contamination during culture. Basal MSCs were stained with either Hoechst (Hoechst 33342, H3570, ThermoFisher Scientific, USA) for 10 minutes or cell tracker (C2102, CellTracker™ green BODIPY™ dye, ThermoFisher Scientific, USA) for 15 minutes. In all cases, adhesive cells were detached using Trypsin/EDTA (CC3232, Lonza) at 37° C. for 10 minutes. The size of trypsinized cells was measured by the analytical tool provided in the Olympus cellSens Dimension software.

[3] = tested on: mouse mesenchymal stem cells (mMSCs); conditions: 150 μM H2O2; each timepoint including 24 hours after treatment
Experimental: Cellular senescence induction of mouse MSCs. […] At each timepoint, mMSCs were labeled with a senescence detection kit in a 37° C. incubator overnight. The senescence cell ratio was calculated by dividing the SA-β gal^+ cells over the total number of cells counted.

[4] = tested on: human mesenchymal stem cells (hMSCs)
Experimental: Senescent cell model and staining. hMSCs or mMSCs senescence was induced chemically using hydrogen peroxide or using X-ray radiation. The medium containing hydrogen peroxide (H2O2) was prepared by diluting 30% H2O2 solution (H1009, Sigma, USA) with MSCs culture medium to desired concentrations. For the H2O2 treatment experiments, the MSCs were cultured in the medium containing H2O2 at 37° C. for 3 hours. After that, the MSCs were washed with 1×DPBS 2 times and cultured in the fresh media for a variable number of days before analysis. For X-ray radiation treatment, MSCs were placed on a rotating table and exposed to 1 gray (Gy), 4 Gy, or 6 Gy radiation. After treatment, cells were cultured for a variable number of days before analysis. The senescent cells were identified by the senescence detection kit (K320, BioVision, USA), which targets senescence-associated β-galactosidase (SA-β-gal) activity, following the manufacturer's provided protocol. […] For the experiments using the mixture of basal and H2O2-treated hMSCs, the H2O2-treated hMSCs were stained with cell tracker (C34551, CellTracker™ orange CMRA Dye™ dye, ThermoFisher Scientific, USA), while basal hMSCs were stained with Hoechst for 10 minutes to differentiate two cell populations.
Cellular senescence induction of human MSCs. Hydrogen peroxide (H2O2) was used to induce cellular senescence of human MSCs. We tested three H2O2 concentrations: 100, 200, and 300 μM. Concentrated H2O2 (100×) was prepared and was added to hMSC culture media using a 1 to 100 dilution, after which, hMSCs were cultured in H2O2 contained medium in a 37° C. incubator for three hours. After H2O2 treatment, the H2O2 contained medium was withdrawn and the culture wells were washed with DPBS two times. Fresh culture medium was then added to cells for 1, 4, and 7 days post-culture. hMSCs were detached using Trypsin/EDTA, then labeled with a senescence detection kit in a 37° C. incubator overnight following the manufacturer's recommended protocol (K320, BioVision, USA). The senescence kit targets senescence-associated β-galactosidase (SA-β-gal) activity within cells. The SA-β gal^+ cells and total cells were counted to estimate the senescence cell ratio. […] For the experiment to mix basal hMSCs with H2O2 treated hMSCs, the basal hMSCs followed the same culture protocol, but without H2O2 treatment.

[5] = tested on: human mesenchymal stem cells (hMSCs); assay: Necrosis of human MSCs (apoptosis kit, annexin V-FITC / SYTOX green); conditions: for necrotic cell percentage of hMSCs: 300 μM H2O2 treated
[6] = 150 μM H2O2 for three hours, after culturing for 1 day
[7] = 300 μM H2O2 treated hMSCs, cultured 7 days, stored at 4° C. another 2 days (FIG. 19B)

## OO [H2O2, hydrogen peroxide]
[1]
  size of hMSCs: 29.4+/−3.2 μm
[2]; [6]
  increase of size compared to basal mMSCs: 3.5 μm
  size of mMSCs: 16.8+/−2.5 μm
[2]; H2O2 (150 μM) treated mMSCs, sample input
  purity of cells >15 μm: 43.5%
[3]
  senescence ratio of mMSCs versus cells without H2O2 treatment: higher
[4]; 300 μM H2O2 for 3 hours, 1 day post-treatment
  percentage of senescent hMSCs: 9.9%
[4]; 300 μM H2O2 for 3 hours, 3 days post-treatment
  percentage of senescent hMSCs: 16.5%
[4]; 300 μM H2O2 for 3 hours, 7 days post-treatment
  percentage of senescent hMSCs (senescence ratio): ~50% and 57.7%
[4]; [7]
  percentage of senescent cells: 51.7%
[5]; [7]
  percentage of necrotic cells: 37%
  percentage of viable cells: 11.3%
[5]; before storage at 4° C.
  necrotic cell percentage of hMSCs: 25%
[5]; stored at 4° C. refrigerator for 2 days
  necrotic cell percentage of hMSCs: 56%
